For orientation: logP means the decadic logarithm of the partition coefficient of the neutral form, usually between octanol and water. Higher therefore signals a more lipophilic compound. The pIC50 is the IC50 on a negative log10 scale, so that one unit is a factor of ten.

From ChEMBL document CHEMBL3132773, “Synthesis and biological evaluation of novel 2,3-dihydro-1H-1,5-benzodiazepin-2-ones; potential imaging agents of the metabotropic glutamate 2 receptor” (Medchemcomm, 2013) come the findings set out here.

The structures appear in SMILES notation. pIC50: −log10 of the molar value.

One series addresses Albumin (Homo sapiens, UniProt P02768). Kind of series: Protein binding in human serum albumin by chromatography. In kind it is ADME. The note with it: read-out: PPB (converted).
Series [1] is described as follows: Lipophilicity, log P of the compound by HPLC analysis. In kind it is physicochemical.
Series [2] has as its target Metabotropic glutamate receptor 2 (Homo sapiens, UniProt Q14416). Kind of series: Non-competitive antagonist activity at human recombinant mGluR2 expressed in Chem-1 cell membrane assessed as inhibition of L-glutamate-induced [35S]GTPgammaS binding after 30 mins by liquid scintillation counting analysis. In kind it is functional, cell membranes. Background: Binding of GTPγS marks nucleotide exchange on a G protein.

Albumin, sequence (P02768 whole entry): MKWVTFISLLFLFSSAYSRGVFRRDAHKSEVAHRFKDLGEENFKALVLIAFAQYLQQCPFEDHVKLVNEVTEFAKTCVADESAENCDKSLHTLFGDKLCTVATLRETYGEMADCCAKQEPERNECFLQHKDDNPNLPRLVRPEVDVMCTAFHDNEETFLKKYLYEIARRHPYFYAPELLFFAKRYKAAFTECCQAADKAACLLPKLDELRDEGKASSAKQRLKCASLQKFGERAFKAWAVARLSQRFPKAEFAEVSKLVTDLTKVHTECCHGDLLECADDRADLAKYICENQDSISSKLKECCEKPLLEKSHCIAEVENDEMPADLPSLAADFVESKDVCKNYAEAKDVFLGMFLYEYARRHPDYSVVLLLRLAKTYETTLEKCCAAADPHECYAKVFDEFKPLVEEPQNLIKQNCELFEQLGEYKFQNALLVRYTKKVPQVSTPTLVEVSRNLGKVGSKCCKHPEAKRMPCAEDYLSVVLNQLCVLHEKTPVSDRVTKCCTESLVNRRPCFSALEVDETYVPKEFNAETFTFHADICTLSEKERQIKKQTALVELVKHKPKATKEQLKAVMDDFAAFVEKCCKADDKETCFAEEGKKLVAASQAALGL
Metabotropic glutamate receptor 2, sequence (Q14416 whole entry): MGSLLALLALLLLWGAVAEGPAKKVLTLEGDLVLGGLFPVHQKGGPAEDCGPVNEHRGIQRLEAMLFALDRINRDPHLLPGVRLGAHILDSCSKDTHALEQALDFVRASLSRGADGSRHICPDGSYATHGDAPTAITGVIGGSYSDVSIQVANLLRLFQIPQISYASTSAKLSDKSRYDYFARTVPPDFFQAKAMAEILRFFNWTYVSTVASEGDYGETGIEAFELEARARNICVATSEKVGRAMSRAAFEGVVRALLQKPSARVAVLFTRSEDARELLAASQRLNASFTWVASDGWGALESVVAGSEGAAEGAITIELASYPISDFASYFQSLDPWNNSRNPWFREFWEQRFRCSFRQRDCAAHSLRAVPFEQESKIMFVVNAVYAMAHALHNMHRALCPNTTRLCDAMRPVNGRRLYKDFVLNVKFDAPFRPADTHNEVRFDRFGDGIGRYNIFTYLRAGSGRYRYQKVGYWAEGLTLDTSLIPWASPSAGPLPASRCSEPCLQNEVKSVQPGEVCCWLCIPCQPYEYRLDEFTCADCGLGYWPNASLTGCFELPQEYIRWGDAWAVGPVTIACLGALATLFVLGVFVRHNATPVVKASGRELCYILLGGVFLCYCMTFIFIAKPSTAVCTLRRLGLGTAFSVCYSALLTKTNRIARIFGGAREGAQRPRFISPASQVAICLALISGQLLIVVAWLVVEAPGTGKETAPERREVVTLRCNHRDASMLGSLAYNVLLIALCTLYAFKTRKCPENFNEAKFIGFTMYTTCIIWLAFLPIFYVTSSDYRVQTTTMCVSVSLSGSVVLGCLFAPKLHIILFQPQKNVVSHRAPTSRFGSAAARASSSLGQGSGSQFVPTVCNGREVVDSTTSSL

With `O=C1CC(c2cccc(-n3ccnc3)c2)=Nc2ccc(-c3cccc(I)c3)cc2N1`, the fraction unbound at Albumin is 0.0154. Also, the logP in series [1] is 5.73. The pIC50 in series [2] was 6.88.
The like results for `COc1cc2c(cc1-c1ccc(I)cc1)NC(=O)CC(c1cccc(-n3ccnc3)c1)=N2` were, in that order, 0.0168, 5.72 and 7.05.
The matching figures for `COc1cc2c(cc1C(F)(F)F)NC(=O)CC(c1cccc(-n3ccnc3)c1)=N2`: 0.0759, 4.67 and 7.04.
As to `Clc1cccc(Cl)c1/C(=C/n1cncn1)OC1CCCCCC1`, the pIC50 in series [2] was 6.27.
Consider `O=C1CC(c2cccc(-n3ccnc3)c2)=Nc2ccc(-c3ccc(I)cc3)cc2N1`, for which the fraction unbound on Albumin is 0.0133. In series [1], this compound showed a logP of 5.77. Besides, in series [2], the pIC50 was 6.88.
The matching figures for `O=C1CC(c2cccc(-n3ccnc3)c2)=Nc2ccc(I)cc2N1`: 0.0508, 4.6 and 7.05.
In the case of `O=C1CC(c2cccc(-n3ccnc3)c2)=Nc2cc(OCCCF)c(C(F)(F)F)cc2N1`, at Albumin, the fraction unbound was 0.0488. This compound displayed a lipophilicity (logP) in series [1] of 5.06. Also, the pIC50 in series [2] was 7.00.
